Assay results published in patent US11390621B2, “Chiral indole compounds and their use” (ARIAGEN, INC., priority 2019, dated 2022).
“And” between values parts separate entries of the source, which are not always exact repeats. Identical values can stand only once. Like-named read-outs stand apart in the source and are kept apart here. Marks after values point to notes of the source that are not given here.

Experiments:
[1] = system: EMT-6 cancer cells; assay: EMT-6 subcutaneous syngeneic mouse tumor model (Example 48); assay type: in vivo, BALB/C mice; conditions: 40 mg/kg, IP
Experimental: (§1) This example describes in vivo studies that evaluated the anti-cancer efficacy of ARI-143, ARI-164, ARI-165, and ARI-186 in syngeneic mouse tumor models. Mice implanted subcutaneously with EMT-6 or Pan02 cancer cells were treated with ARI-143, ARI-164, ARI-165, ARI-186, or vehicle controls, as described below.
(§2) A monolayer culture of tumor cells was maintained in vitro in DMEM or RPMI1640 medium supplemented with 10% fetal bovine serum at 37° C. in an atmosphere of 5% CO2. Cells in exponential growth phase were harvested and quantitated by cell counter before tumor inoculation. The cell lines used are described in the table below.
(§3) Two subcutaneous syngeneic mouse tumor models were generated by innoculating female BALB/C or C57BL/6 mice with cancer cells at their right lower or front flank as detailed in the table below:
(§4) Each mouse was inoculated subcutaneously with tumor cells in 0.1 mL of PBS. Treatments were started when the mean tumor size reached approximately 80-120 mm^3 (around 100 mm^3). The administration of the test compounds and the animal number in each study group are shown in the study design. The date of tumor cell inoculation was denoted as day 0.
(§5) ARI-143, ARI-164, and ARI-165 were dissolved in DMSO at the final concentration of 26.7 mg/ml and stored at room temperature. In Pan02 studies of ARI-164 and ARI-186, both compounds were dissolved in 100% PEG400.
Randomization of animals was started when the mean tumor size reached approximately 90 mm^3 to form the mouse study groups. The randomization was-performed based on “Matched distribution” method using the multi-task method (StudyDirector™ software, version 3.1.399.19)/randomized block design. The mouse groups (ten in each group) were treated with vehicle (DMSO or PEG400) or the test compounds at a dose of 26-80 mg/kg by intraperitoneal (i.p.). injection, QD for 28 days or longer.
(§6) After tumor cell inoculation, the mice were checked daily for morbidity and mortality. During routine monitoring, the mice were checked for tumor growth and any effects of the treatment on behavior such as mobility, food and water consumption, body weight gain/loss (body weights were measured twice per week after randomization), eye/hair matting, and any other abnormalities. Mortality and observed clinical signs were recorded for individual mice in detail.
(§7) Tumor volumes were measured twice per week in two dimensions using a caliper, and the volume was expressed in mm^3 using the formula: V=(L×W×W)/2, where V is tumor volume, L is tumor length (the longest tumor dimension) and W is tumor width (the longest tumor dimension perpendicular to L). Dosing as well as tumor and body weight measurements was conducted in a Laminar Flow Cabinet. The body weights and tumor volumes were measured by using StudyDirector™ software (version 3.1.399.19). Dosing Holiday
(§8) Tumor growth inhibition percentage (TGI %) is an indicator for antitumor activity of a drug compound, and expressed as: TGI(%)=100×(1−T/C), where T and C are the mean tumor volume (or weight) of the treated and control groups, respectively, on a given day. Statistical analysis of the difference in mean tumor volume (MTV) among the groups was conducted using the data collected on the day when the MTV of the vehicle group reached the humane endpoints, so that TGI could be derived for all or most mice enrolled in the study.

[2] = In vivo pharmacokinetic studies in mice; design: species or system Balb/C mice
[3] = system: A20; assay: A20 syngeneic mouse tumor model, ARI-164 / anti-PD-1 / combination (Example 49); assay type: in vivo
Experimental: (§9) In this example, the in vivo anti-tumor efficacy of a combination of ARI-164 with an anti-PD-1 antibody was evaluated using a panel of seven subcutaneous syngeneic mouse tumor models.
(§10) Seven subcutaneous syngeneic mouse tumor models were generated by innoculating female BALB/C or C57BL/6 mice with cancer cells at their right lower or right front flank followed by randomization as detailed in Table 10 below.
(§11) A solution of a rat monoclonal anti-mouse PD-1 antibody (isotype IgG2a, κ) at a concentration of 6.61 mg/ml was obtained from BioXcell (InVivoMAb anti-mouse PD-1 (CD279), Clone RMP1-14, Cat #BE0146)) and store at 4° C. The antibody solution was diluted with PBS to obtain a 1 mg/ml dosing solution.
(§12) ARI-164 powder was stored at −20° C. The powder of the compound was dissolved in DMSO to obtain dosing solutions at 26.7 mg/ml for administration to mice at 40 mg/kg, respectively.
(§13) Seven studies using the seven subcutaneous syngeneic mouse tumor models were performed. In each study, 80 mice were enrolled and randomly allocated to eight different study groups, with 10 mice in each study group. The mean tumor size at randomization was approximately 80-120 mm^3 (around 100 mm^3). Randomization was performed based on “Matched distribution” randomization method (StudyDirector™ software, version 3.1.399.19). […]
(§14) The data was collected and analyzed as described above in Example 48.

[4] = system: Pan02 cancer cells; assay: Pan02 subcutaneous syngeneic mouse tumor model (Example 48); assay type: in vivo, C57BL/6 mice; conditions: for TGI: IP; for tumor inhibition versus vehicle: Pan02 tumors
Experimental: as §1, §2, §3, §4, §5
Randomization of animals was started when the mean tumor size reached approximately 90 mm^3 to form the mouse study groups. The randomization was-performed based on “Matched distribution” method using the multi-task method (StudyDirector™ software, version 3.1.399.19)/randomized block design. […]
as §6, §7, §8

[5] = system: MC38; assay: MC38 syngeneic mouse tumor model, ARI-164 / anti-PD-1 / combination (Example 49); assay type: in vivo
Experimental: as §9, §10, §11, §12, §13, §14

[6] = Balb/C, mouse, plasma, mice, single 40 mg/kg oral dose
[7] = Balb/C, mouse, plasma, mice, single 40 mg/kg oral dose, from mean profile
[8] = Balb/C, mouse, plasma, mice, read-out: half-life (converted)
[9] = mice, single 40 mg/kg oral dose, Mean
[10] = mice, single 40 mg/kg oral dose, individual mouse (M1-M3), 40 mg/kg
[11] = mice, single 40 mg/kg oral dose
[12] = mouse, plasma, Balb/C mice, single dose IP 40 mg/kg
[13] = mouse, plasma, Balb/C mice, single dose IV 5 mg/kg
[14] = mouse, plasma, Balb/C mice, single dose PO 10 mg/kg
[15] = mouse, plasma, Balb/C mice, single dose PO 40 mg/kg

Work on CCC(=O)c1csc(C(=O)c2c[nH]c3cc(F)ccc23)n1 [ARI-143, 1-(2-(6-fluoro-1H-indole-3-carbonyl)thiazol-4-yl)propan-1-one] yielded a TGI ([1]; (susp), study day 6) of 0.1%, a TGI ([1]; (susp), study day 10) of −10.1% and a TGI ([1]; (susp), study day 13) of 0.6%. For the same compound, the TGI ([1]; (susp), study day 17) was 30.9%, the TGI ([1]; (susp), study day 20) was 41.0% and the TGI ([1]; (susp), study day 24) was 53.2%. For the same compound, the TGI ([1]; (susp), study day 27) was 51.8% and the TGI ([1]; (susp), study day 31) was 54.8%.
CC[C@H](O)c1csc(C(=O)c2c[nH]c3cc(F)ccc23)n1 [ARI-164, (S)-(6-Fluoro-1H-indol-3-yl)(4-(1-hydroxypropyl)thiazol-2-yl)methanone] showed an AUC [2, 6] of 3010 ng·h/mL, a bioavailability [2, 6] of 15.1% and a Cmax [2, 7] of 1870 ng/mL. It also gave a Tmax [2, 7] of 0.5 h, an AUC(0-t) ([2]; Balb/C, mouse, plasma, mice, single 40 mg/kg oral dose, from mean profile, read-out: AUC0-t) of 3010 ng·h/mL and an AUC(0-inf) ([2]; Balb/C, mouse, plasma, mice, single 40 mg/kg oral dose, from mean profile, read-out: AUC0-∞) of 3020 ng·h/mL. The half-life ([2]; Balb/C, mouse, plasma, mice, single 40 mg/kg oral dose, from mean profile, read-out: t1/2 (converted)) was 1.4 h, the half-life [2, 8] was 1.4 h and the “plasma concentration at 0.083 hr” value [2, 9] was 206.7. For the same compound, the “plasma concentration at 0.25 hr” value [2, 9] was 1623, the “plasma concentration at 0.5 hr” value [2, 9] was 1867 and the “plasma concentration at 1 hr” value [2, 9] was 1193. For the same compound, the “plasma concentration at 2 hr” value [2, 9] was 506, the “plasma concentration at 4 hr” value [2, 9] was 82.8 and the “plasma concentration at 8 hr” value [2, 9] was 7.1. The “plasma concentration at 12 hr” value [2, 9] was 6.5, the “plasma concentration at 24 hr” value ([2]; mice, single 40 mg/kg oral dose, individual mouse (M1-M3)) was “BLQ” and the “plasma concentration at 0.083 hr” value [2, 10] was 330 and 202 and 88. The “plasma concentration at 0.25 hr” value [2, 10] was 1780 and 1740 and 1350, the “plasma concentration at 0.5 hr” value [2, 10] was 1960 and 2020 and 1620 and the “plasma concentration at 1 hr” value [2, 10] was 1050 and 1600 and 930. For the same compound, the “plasma concentration at 2 hr” value [2, 10] was 463 and 572 and 482, the “plasma concentration at 4 hr” value [2, 10] was 101 and 79.3 and 68.2 and the “plasma concentration at 8 hr” value [2, 10] was 7.1 and BLQ (2×). The “plasma concentration at 12 hr” value [2, 10] was 7.5 and BLQ and 5.6, the “tumor inhibition (in words)” value ([3]; combination with anti-PD-1 antibody, study day 28) was “significant tumor inhibition” and the “TGI (%)” value ([3]; intraperitoneal, anti-PD-1 10 mg/kg BIW, ARI-164 40 mg/kg QD) was 28.1%. For the same compound, the TGI ([4]; 80 mg/kg, study day 0) was −0.6%, the TGI ([4]; 80 mg/kg, study day 4) was −4.4% and the TGI ([4]; 80 mg/kg, study day 7) was −8.4%. The TGI ([4]; 80 mg/kg, study day 11) was 26.6%, the TGI ([4]; 80 mg/kg, study day 14) was 40.6% and the TGI ([4]; 80 mg/kg, study day 18) was 35.3%. The “tumor inhibition versus vehicle” value ([4]; 80 mpk i.p. QD, study day 18) was 35%, the “tumor inhibition (in words)” value ([5]; combination with anti-PD-1 antibody, study day 27) was “significant tumor inhibition” and the “TGI (%)” value ([5]; intraperitoneal, anti-PD-1 10 mg/kg BIW, ARI-164 160 mg/kg QD) was 18.8%. It also gave a TGI ([1]; study day 6) of 0.1%, a TGI ([1]; study day 10) of −10.8% and a TGI ([1]; study day 13) of −2.4%. The TGI ([1]; study day 17) was 20.8%, the TGI ([1]; study day 20) was 41.6% and the TGI ([1]; study day 24) was 54.7%. For the same compound, the TGI ([1]; study day 27) was 54.3% and the TGI ([1]; study day 31) was 56.2%.
With CC[C@H](N)c1csc(C(=O)c2c[nH]c3cc(F)ccc23)n1 [ARI-186, (S)-(4-(1-aminopropyl)thiazol-2-yl)(6-fluoro-1H-indol-3-yl)methanone] the “F*” value ([2]; Balb/C mice, single dose IP 40 mg/kg (value marked **)) was 81.4** %, the “F*” value ([2]; Balb/C mice, single dose PO 10 mg/kg) was 63.0% and the “F*” value ([2]; Balb/C mice, single dose PO 40 mg/kg (value marked **)) was 75.7** %. It also gave an AUC [2, 6] of 73900 ng·h/mL, a bioavailability [2, 6] of 75.7% and a half-life [2, 8] of about 7.6 h. The “improvement in AUC over ARI-164 (fold)” value [2, 11] was 24.6 ×, the “improvement in oral bioavailability over ARI-164 (fold)” value [2, 11] was 5.0 × and the Cmax [2, 12] was 6230 ng/mL. The MRT last [2, 12] was 11.2 h, the Tmax [2, 12] was 0.5 h and the AUC(0-t) ([2]; mouse, plasma, Balb/C mice, single dose IP 40 mg/kg, read-out: AUClast) was 79400 ng·h/mL. The Cmax [2, 13] was 2130 ng/mL, the MRT inf [2, 13] was 9.55 h and the MRT last [2, 13] was 6.99 h. For the same compound, the Tmax [2, 13] was 0.083 h, the clearance [2, 13] was 6.18 mL/min/kg and the AUC(0-inf) ([2]; mouse, plasma, Balb/C mice, single dose IV 5 mg/kg, read-out: AUCinf) was 13500 ng·h/mL. The AUC(0-t) ([2]; mouse, plasma, Balb/C mice, single dose IV 5 mg/kg, read-out: AUClast) was 12200 ng·h/mL, the half-life ([2]; mouse, plasma, Balb/C mice, single dose IV 5 mg/kg, read-out: T1/2 (converted)) was 7.62 h and the Vd ([2]; mouse, plasma, Balb/C mice, single dose IV 5 mg/kg, read-out: Vss) was 3.55 L/kg. The Cmax [2, 14] was 1380 ng/mL, the MRT inf [2, 14] was 8.21 h and the MRT last [2, 14] was 6.76 h. It also gave a Tmax [2, 14] of 2 h, an AUC(0-inf) ([2]; mouse, plasma, Balb/C mice, single dose PO 10 mg/kg, read-out: AUCinf) of 17000 ng·h/mL and an AUC(0-t) ([2]; mouse, plasma, Balb/C mice, single dose PO 10 mg/kg, read-out: AUClast) of 16100 ng·h/mL. The half-life ([2]; mouse, plasma, Balb/C mice, single dose PO 10 mg/kg, read-out: T1/2 (converted)) was 5.56 h, the Cmax [2, 15] was 5000 ng/mL and the MRT last [2, 15] was 9.35 h. For the same compound, the Tmax [2, 15] was 2 h, the AUC(0-t) ([2]; mouse, plasma, Balb/C mice, single dose PO 40 mg/kg, read-out: AUClast) was 73900 ng·h/mL and the TGI ([4]; 20 mg/kg, study day 0) was −2.0%. For the same compound, the TGI ([4]; 20 mg/kg, study day 4) was −13.0%, the TGI ([4]; 20 mg/kg, study day 7) was −0.3% and the TGI ([4]; 20 mg/kg, study day 11) was 27.0%. The TGI ([4]; 20 mg/kg, study day 14) was 49.5%, the TGI ([4]; 20 mg/kg, study day 18) was 61.9% and the “tumor inhibition versus vehicle” value ([4]; 20 mpk i.p. QD, study day 18) was 62%.
